Laboratory results: patent US20080317807A1, “STRONTIUM FORTIFIED CALCIUM NANO-AND MICROPARTICLE COMPOSITIONS AND METHODS OF MAKING AND USING THEREOF” (The University of Hong Kong, priority 2007, published 2008)

Tests used:
[1] = system: osteoporotic mice model induced by parathyroid hormone; conditions: cited from earlier work
[2] = system: fibroblast and pre-osteoblastic enriched cell populations; conditions: cited from earlier work
[3] = system: osteoblast differentiation; assay: Osteoblast differentiation by ALP staining and ALP quantification; assay type: cell-based
Excerpt: It was also observed that the administration of strontium promoted osteoblast differentiation. This was confirmed via alkaline phosphatase (ALP) staining and ALP quantification.

mature osteoblast = conditions: Strontium concentrations of 10^−3M or higher; cited from earlier work
rats = conditions: cited from earlier work

SMILES	Bone resorption [1]	Increase of DNA synthesis [2]	Matrix mineralization of osteoprogenitors [3]	Osteoblast differentiation (ALP staining and quantification) ([3]; particularly after 14 days)	Increase of collagen and non-collagenic protein synthesis (mature osteoblast) [%]	Increase of alkaline phosphatase activities, female rats (rats; female rats) [%]	Increase of alkaline phosphatase activities, male rats (rats; male rats) [%]	Plasma IGF-1, males (rats; males, after 104 weeks of treatment)
N#Cc1c(N(CC(=O)[O-])CC(=O)[O-])sc(C(=O)[O-])c1CC(=O)[O-].[Sr+2].[Sr+2] [strontium ranelate]	inhibited bone resorption	three- to four						
[Sr+2] [strontium]			increased matrix mineralization	increased osteoblast differentiation	34	56	53	Significant increase
